Test results: article PMC3720905, “A Conserved Aspartic Acid Is Important for Agonist (VUAA1) and Odorant/Tuning Receptor-Dependent Activation of the Insect Odorant Co-Receptor (Orco)” (PLoS ONE, 2013)

What was measured:
[1] = molecular target: T1, DmelOrco (N-myc DmelOrco) (Drosophila melanogaster, UniProt Q9VNB5); experiment: Ca2+ influx (Fluo-4 fluorescence); format: cell-based
T1 construct: gene Orco; homomeric channel; ~50 kDa band
T1 sequence (Q9VNB5 1-486): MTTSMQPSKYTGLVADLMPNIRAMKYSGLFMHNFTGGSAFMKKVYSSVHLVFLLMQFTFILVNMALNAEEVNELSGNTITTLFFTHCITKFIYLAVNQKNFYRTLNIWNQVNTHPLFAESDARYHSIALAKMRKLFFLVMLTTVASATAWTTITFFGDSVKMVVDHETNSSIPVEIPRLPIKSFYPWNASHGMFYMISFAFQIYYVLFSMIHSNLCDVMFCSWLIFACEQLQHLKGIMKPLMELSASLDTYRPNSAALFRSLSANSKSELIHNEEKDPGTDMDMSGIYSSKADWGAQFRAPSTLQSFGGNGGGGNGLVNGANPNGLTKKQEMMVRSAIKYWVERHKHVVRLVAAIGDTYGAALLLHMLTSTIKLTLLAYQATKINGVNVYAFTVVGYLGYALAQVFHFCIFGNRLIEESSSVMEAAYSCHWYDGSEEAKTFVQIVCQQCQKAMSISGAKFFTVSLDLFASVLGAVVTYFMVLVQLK

[2] = molecular target: T2, DmelOrco (N-myc DmelOrco) (Drosophila melanogaster, UniProt Q9VNB5, D466E); experiment: Ca2+ influx (Fluo-4 fluorescence); format: cell-based
T2 construct: gene Orco; homomeric channel; ~50 kDa band
T2 sequence (Q9VNB5 1-486 D466E): T1 sequence (Q9VNB5 1-486)

[3] = molecular target: T3, DmelOrco (N-myc DmelOrco) (Drosophila melanogaster, UniProt Q9VNB5, D357N); experiment: Ca2+ influx (Fluo-4 fluorescence); format: cell-based
T3 construct: gene Orco; homomeric channel; ~50 kDa band
T3 sequence (Q9VNB5 1-486 D357N): T1 sequence (Q9VNB5 1-486)

[4] = molecular target: T4, DmelOrco (N-myc DmelOrco) (Drosophila melanogaster, UniProt Q9VNB5, D466N); experiment: Ca2+ influx (Fluo-4 fluorescence); format: cell-based
T4 construct: gene Orco; homomeric channel; ~50 kDa band
T4 sequence (Q9VNB5 1-486 D466N): T1 sequence (Q9VNB5 1-486)

[5] = molecular target: T5, DmelOrco/DmelOR22a complex (Drosophila melanogaster, UniProt P81909); experiment: Ca2+ influx (Fluo-4 AM fluorescence); format: cell-based; settings: heteromeric channel, odorant agonist; data not shown
T5 construct: gene Or22a; heteromeric channel; Or22a in pCI transiently transfected into Flp-In 293 T-REX cells stably expressing N-myc DmelOrco; stoichiometry unknown; with Odorant receptor coreceptor
T5 sequence (P81909 1-397): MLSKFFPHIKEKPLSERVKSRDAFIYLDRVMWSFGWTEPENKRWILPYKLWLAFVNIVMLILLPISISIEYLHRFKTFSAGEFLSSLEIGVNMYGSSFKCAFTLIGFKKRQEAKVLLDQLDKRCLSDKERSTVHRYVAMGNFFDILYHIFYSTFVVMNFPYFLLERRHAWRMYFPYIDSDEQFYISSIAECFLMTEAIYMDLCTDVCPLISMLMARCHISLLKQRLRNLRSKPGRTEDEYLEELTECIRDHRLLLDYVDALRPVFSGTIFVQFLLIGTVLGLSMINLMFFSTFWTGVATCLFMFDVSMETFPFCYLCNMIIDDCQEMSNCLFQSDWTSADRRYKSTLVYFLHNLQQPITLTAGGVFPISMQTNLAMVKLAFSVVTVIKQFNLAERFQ
T5 sequence (Q9VNB5 1-486 partner): T1 sequence (Q9VNB5 1-486)

DmelOrco/AgOR65 complex [6] = test system: T6, DmelOrco/AgOR65 complex; experiment: Ca2+ influx (Fluo-4 AM fluorescence); format: cell-based, Anopheles gambiae; settings: log10 of molar EC50 (unit not given); heteromeric channel, odorant agonist
T6 construct: gene Or65; mixed-species heteromeric channel; AgOR65 in pCI transfected into Flp-In 293 T-REX cells stably expressing N-myc DmelOrco; with Odorant receptor coreceptor (Drosophila melanogaster)

DmelOrco/AgOR65 complex [7] = test system: T6, DmelOrco/AgOR65 complex; experiment: Ca2+ influx (Fluo-4 AM fluorescence); format: cell-based, Anopheles gambiae; settings: log10 of molar EC50 (unit not given); heteromeric channel, odorant agonist; remark: listed apart in the source
DmelOrco/AgOR65 complex [8] = test system: T6, DmelOrco/AgOR65 complex; experiment: Ca2+ influx (Fluo-4 AM fluorescence); format: cell-based, Anopheles gambiae; settings: log10 of molar EC50 (unit not given); heteromeric channel, odorant agonist; remark: listed apart in the source
[9] = molecular target: T5, DmelOrco/DmelOR22a complex; experiment: Ca2+ influx (Fluo-4 AM fluorescence); format: cell-based

CCc1ccc(NC(=O)CSc2nnc(-c3cccnc3)n2CC)cc1 [VUAA1, N-(4-ethylphenyl)-2-((4-ethyl-5-(3-pyridinyl)-4H-1,2,4-triazol-3-yl)thio)acetamide]
EC50 [1]: 46.8 µM
EC50 [2]: 21.4 µM
EC50 [3]: 38 µM
EC50 [4]: 85.1 µM

CCCCCC(=O)OCC [ethyl hexanoate]
Ca2+ influx (Fluo-4 AM fluorescence) [5]: Essentially identical responses were observed to ethyl hexanoate

C=CCc1ccc(O)c(OC)c1 [eugenol]
LogEC50 (DmelOrco/AgOR65 complex [6]): -6.54±0.05
LogEC50 (DmelOrco/AgOR65 complex [7]): -6.75±0.03
LogEC50 (DmelOrco/AgOR65 complex [8]): -6.34±0.04

CCCCCC(=O)OC [methyl hexanoate]
EC50 [9]: 0.417 µM
